Experimental data: patent publication US6203776A, “Method for identifying adrenergic receptor antagonists having good tolerability” (University Technology Corporation, priority 1998, dated 2001)

How the values were obtained:
human β1 or β2 receptors = assay: Inverse agonist activity: inhibition of basal adenylyl cyclase activity (cAMP generation) in Sf9 membranes; format: biochemical; details: concentration 10×Ki for the β2 receptor
Description: Sf9 cells were transfected with a baculovirus expression system coding for human β1 or β2 receptors as described in Chidiac et al., Molec.
Adenylyl cyclase activity of Sf9 membranes was measured as described in Chidiac et al., Molec. […] The inhibition of basal cAMP generation in this system is a measure of inverse agonism.

[1] = tested on: β1, β2 and α1 adrenergic receptors; details: Yoshikawa et al., Eur. Heart J. 1996; cited from earlier work

## CC(C)(Cc1c[nH]c2ccccc12)NCC(O)COc1ccccc1C#N (centres unmarked) [bucindolol]
Human β1 or β2 receptors
  rank order of inverse agonist activity (FIG. 1B): metoprolol>propranolol≥carvedilol>xamoterol>bucindolol
[1]
  adrenergic receptor subtype selectivity / rank order of potency: nonselective for β1 and β2 adrenergic receptors
